Reference: patent publication US20220356147A1, “COMPOUNDS AND METHODS FOR POTENTIATING COLISTIN ACTIVITY” (University of Notre Dame du Lac, priority 2019, published 2022)
Read-outs that look alike come from different tables or passages of the source.

Key:
[1] = tested on: A. baumannii 4106 (AB4106); test: Broth microdilution, colistin potentiation; format: cell-based
Method: (§1) Broth microdilution method for measurement of colistin potentiation: Bacteria were cultured for 4 to 6 hours in CAMHB and diluted to 1.04×10^6 CFU/mL for AB 4106 and 1.96×10^6 CFU/mL for KP B9 in fresh CAMHB. To aliquots (4 mL) was added compound from stock solutions in DMSO. One aliquot was not dosed to allow measurement of the colistin MIC in the absence of compound. A 1 mL aliquot of each sample was dosed with colistin, and from this 200 μL was dispensed into the first row of a 96-well microtiter plate in which all but the final row of subsequent wells was prefilled with 100 μL of the corresponding compound dosed bacterial suspension The final row was filled with media to act as a sterility control and blank. Row one wells were mixed 6-7 times, then, 100 μL was withdrawn and transferred to row two. Row two wells were mixed 6-7 times followed by a 100 μL transfer from row two to row three. This procedure was used to serially dilute the rest of the rows of the microtiter plate, excluding the last prefilled row, which was used to measure growth in the presence of compound alone. Plates were then sealed with GLAD
(§2) Press'n Seal and incubated under stationary conditions at 37° C. […] MIC values were determined as the minimum concentration required to achieve 90% growth inhibition compared to growth in untreated wells.

[2] = tested on: AB 4106; test: Broth microdilution, standalone MIC of compound; format: cell-based, A. baumannii; settings: read-out: MIC of compound alone, AB 4106
Method: Broth microdilution method for the determination of minimum inhibitory concentrations: Bacteria were cultured for 4 to 6 hours in CAMHB and subcultured to 1.04×10^6 CFU/mL for AB 4106 and 1.96×10^6 CFU/mL for KP B9 in fresh CAMHB. To aliquots (1 mL) was added compound from stock solutions in DMSO, such that the compound concentration equaled the highest concentration tested. Samples were then dispensed (200 μL) into the first row of a 96-well microtiter plate in which all but the final row of subsequent wells were prefilled with 100 μL of the untreated bacterial subculture. The final row was filled with media to act as a sterility control and blank. Row one wells were mixed 6-7 times, then, 100 μL was withdrawn and transferred to row two. Row two wells were mixed 6-7 times followed by a 100 μL transfer from row two to row three. This procedure was used to serially dilute the rest of the rows of the microtiter plate, excluding the last prefilled row, which was used to measure growth in the absence of compound. Plates were then sealed with GLAD Press'n Seal and incubated under stationary conditions at 37 C. […] MIC values were determined as the minimum concentration required to achieve 90% growth inhibition compared to growth in untreated wells.

[3] = tested on: AB 3941; test: Colistin potentiation, colistin-resistant isolate panel; format: cell-based, A. baumannii; settings: compound at 5 μM
[4] = tested on: AB 3942; test: as above; format: cell-based, A. baumannii; settings: compound at 5 μM
[5] = tested on: AB 4112; test: as above; format: cell-based, A. baumannii; settings: compound at 5 μM
[6] = tested on: AB 4119; test: as above; format: cell-based, A. baumannii; settings: compound at 5 μM
[7] = tested on: AB 17978 mcr-1; test: as above; format: cell-based, A. baumannii; settings: compound at 5 μM
[8] = tested on: 4T1 cells; test: Cell line toxicity (MTT); format: cell-based
Method: Cell line Toxicity: 4T1 cells (ATCC Manassas, Va.) were plated at a density of 1×10^4 cells/well in 96-well plates in Roswell Park Memorial Institute Media 1640 (RPMI)
(Gibco, Gaithersburg, MD) supplemented with 10% Fetal Bovine Serum (Gibco), 2 mM GlutaMAX (Gibco) and 50 μM 2-mercaptoethanol (Sigma Aldrich, St. Louis, Mo.) and incubated at 37 C under a 5% CO2 atmosphere in the dark for 18 h. Cell cultures were treated with serial dilutions of compounds in the presence or absence of 1 μg/mL colistin (3 replicates per condition) and incubated for an additional 18 hours. The following control conditions were used: media only (blank), 1% Triton X100 (0% cell viability), 0.5% DMSO (100% cell viability). Each condition was then treated with 10% volume of a 5 mg/mL solution of 3-(4,5-dimethylthiazol-2-yl)-2,5-diphenyltetrazolium bromide (MTT) (Sigma Aldrich) in sterile filtered 1X phosphate buffered saline (PBS) and incubated for 2 h. at 37 C in 5% CO2, after which the media was aspirated and the resulting formazan crystals were resuspended in 100 μL acidified (4 mM HCl) isopropanol. The 96-well plate was then read at 540 nm on a FLUOstar Optima (BMG Labtech Cary, NC) microplate reader. Cell viability was calculated as a percentage using the two previously mentioned controls.

[9] = tested on: A. baumannii, K. pneumoniae, and Escherichia coli; test: Earlier finding: suppression of colistin resistance by IMD-0354; format: cell-based; settings: 5 μM (1.9 μg/mL) IMD-0354
[10] = tested on: K. pneumoniae B9 (KPB9); test: Broth microdilution, colistin potentiation; format: cell-based; settings: for ability to break colistin resistance, KPB9: compound at 500 nM
Method: as §1, §2

[11] = tested on: AB4106 and KPB9; test: Initial screen for colistin resistance suppression, statements in words for both strains; format: cell-based, A. baumannii and K. pneumoniae; settings: compound at 5 μM
Method: as §1, §2

[12] = tested on: AB 4106; test: Time-kill curves with colistin; format: cell-based, A. baumannii; settings: 5 μM compound + 0.5, 4 or 32 μg/mL colistin, FIG. 1
Method: (§3) Time—kill Curves: Strains were cultured overnight in CAMHB and subcultured to 1.04×10^6 CFU/mL for AB 4106 and 1.96×10^6 CFU/mL for KP B9 in fresh CAMHB. The subculture was then transferred to culture tubes in 3 mL aliquots, which were dosed with adjuvant, colistin, or adjuvant plus colistin. One aliquot was not dosed to serve as a control. All samples were then incubated at 37 C with shaking. At 2, 4, 6, 8, and 24-hour time points, 100 μL was taken from each sample and ten-fold diluted in CAMHB up to 7 times. 100 μL of diluted culture was plated on LB (Lennox) agar and incubated at 37 C overnight. The total number of bacterial colonies on each plate was determined using a SphereFlash colony counter (NEUTEC Group Inc.).

[13] = tested on: KP B9; test: Time-kill curves with colistin; format: cell-based, K. pneumoniae; settings: 5 μM compound + 0.5, 4 or 32 μg/mL colistin, FIG. 2
Method: as §3

[14] = compound at 5 μM, colistin alone 2048 μg/mL
[15] = Acinetobacter baumannii, 16 h, standalone, no colistin

SMILES	Colistin MIC fold reduction, AB 4106 ([1]; compound at 1 μM)	Colistin MIC fold reduction, AB 4106 ([1]; compound at 3 μM)	Colistin MIC fold reduction, AB 4106 [1, 14]	Colistin MIC fold reduction, AB 3941 [3]	Colistin MIC fold reduction, AB 3942 [4]	Colistin MIC fold reduction, AB 4112 [5]	Colistin MIC fold reduction, AB 4119 [6]	Colistin MIC fold reduction, AB 17978 mcr-1 [7]	ability to break colistin resistance, KPB9 [10]	MIC [2, 15]	no measurable toxicity up to ([8]; mouse, 18 h)	also measured
O=C(Nc1cc(C(F)(F)F)cc(C(F)(F)F)c1Cl)c1cc(Cl)ccc1O [Compound 25]	512 fold	1024 fold	2048 fold									Colistin MIC against AB 4106 ([1]; in presence of compound at 1 μM): 4 µg/mL; Colistin MIC against AB 4106 ([1]; in presence of compound at 3 μM): 2 µg/mL; Colistin MIC against AB 4106 ([1]; in presence of compound at 5 μM): 1 µg/mL; MIC ([2]; standalone, no colistin): 50 µM; Colistin MIC against AB 3941 [3]: 1 µg/mL; Colistin MIC against AB 3942 [4]: 1 µg/mL; Colistin MIC against AB 4112 [5]: 1 µg/mL; Colistin MIC against AB 4119 [6]: 1 µg/mL; Colistin MIC against AB 17978 mcr-1 [7]: 0.5 µg/mL; toxicity compared to IMD-0354 ([8]; 4T1 cells, MTT): ca. two-fold more toxic than IMD-0354; CT50 (cytotoxicity) ([8]; 4T1 cells, MTT, 18 hours): 110 µM
O=C(Nc1cc(C(F)(F)F)cc(C(F)(F)F)c1)c1cc(Cl)ccc1O [IMD-0354, reference compound]	256 fold	512 fold	1024 fold	(512) fold	(≥2048) fold	(1024) fold	(256) fold	(128) fold				MIC ([2]; Acinetobacter baumannii, 16 h): 50 µM; reduction of the MIC of colistin [9]: ≥ 4096 fold
O=C(Nc1cc(Br)cc(Br)c1)c1cc(Cl)ccc1O [Compound 23]	256 fold	1024 fold	1024 fold	(512) fold	(≥2048) fold	(1024) fold	(1024) fold	(128) fold	retained the ability to break colistin resistance	> 200 µM	> 200 µM	
O=C(Nc1ccc(C(F)(F)F)c(F)c1)c1cc(Cl)ccc1O [Compound 29, 5-chloro-N-(3-fluoro-4-(trifluoromethyl)phenyl)-2-hydroxybenzamide]	512 fold	1024 fold	2048 fold	(1024) fold	(≥4096) fold	(2048) fold	(512) fold	(512) fold	retained the ability to break colistin resistance	> 200 µM		colistin MIC relative to breakpoint levels, KPB9 ([10]; compound at 250 nM, breakpoint 2 μg/mL): reduced the colistin MIC below breakpoint levels; Colistin potentiation activity in words, compared to IMD-0354 [11]: activity equivalent to IMD-0354
O=C(Nc1cc(Cl)cc(Cl)c1)c1cc(I)ccc1O [Compound 51]	512 fold	2048 fold	2048 fold	(1024) fold	(≥4096) fold	(2048) fold	(2048) fold	(512) fold	retained the ability to break colistin resistance	> 200 µM		
O=C(Nc1ccc(C(F)(F)F)cc1)c1cc(Cl)ccc1O [Compound 26]	128 fold	1024 fold	2048 fold							> 200 µM	> 200 µM	Colistin potentiation activity in words, compared to IMD-0354 [11]: activity equivalent to IMD-0354
O=C(Nc1cc(Cl)cc(Cl)c1)c1cc(Cl)ccc1O [Compound 22]	512 fold	1024 fold	1024 fold							> 200 µM	> 200 µM	Time-kill: potentiation of colistin activity [12]: significant potentiation of colistin activity; Time-kill: potentiation of colistin activity [13]: significant potentiation of colistin activity
O=C(Nc1cc(F)cc(F)c1)c1cc(Cl)ccc1O [Compound 21]	64 fold	512 fold	1024 fold							> 200 µM		CT50 (cytotoxicity) ([8]; mouse, 18 h): 210 µM; toxicity compared to IMD-0354 ([8]; mouse, 18 h): comparable toxicity to IMD-0354
